Source: patent US10242153B2, “Method for determining the risk profile of neoplastic tissue” (NOVAZOI THERANOSTICS, priority 2014, dated 2019)

Legend:
N1E-115 cells [1] = experiment: Vinculin localization in serum-starved N1E-115 cells; type: cell-based, murine; conditions: serum-starved (SS) cells
Text: Vinculin stabilizes cell-substrate contacts in neuronal cells undergoing neuritogenesis, while activation by actin-binding proteins mobilizes vinculin to focal adhesions. To determine the localization of vinculin in the neurite extensions and the effect of declustering agents on its localization, N1E-115 cells were immunostained cells for vinculin and stained F-actin using rhodamine-phalloidin.

MCF10A cells = experiment: Centrosome amplification (CA) by microscopy, MCF10A cells; type: cell-based
Method: Consequently, CA was assessed in cultures treated with different concentrations of declustering drugs for 6, 12, 18, or 24 h and untreated controls via microscopy. Centrosomes were identified by γ-tubulin and centrin-2 colocalization at discrete foci.
(§1) To determine whether the CA-inducing activity of declustering drugs is restricted to cancer cells, two non-malignant cell lines, mammary fibrocystic (MCF10A) cells and adult human dermal fibroblasts (HDFs) were treated with these drugs. […] In comparison, 10 and 25 µM RBN increased peak CA over controls in interphase cells (p<0.001 and p=0.001, respectively), with the lower concentration dramatically augmenting peak CA to 56% of cells versus 15% for the higher dose (FIG. 13, panel B).

MDA-MB-231 (231) cells = experiment: Peak subG1 fraction by flow cytometry (propidium iodide) after declustering drugs, 231 cells; type: cell-based, human
Method: (§2) To evaluate the impact of putative declustering drugs on cell cycle progression and hypodiploidy (<2N DNA content, which may indicate apoptotic cells), MDA-MB-231 (231), PC3, and HeLa cells were treated with different concentrations of declustering drugs, stained with propidium iodide, labeled with anti-MPM2 antibody, and then assessed by flow cytometry at multiple time points over 48 hr. […] The duration, highest degree, and rapidity of onset of MA varied between drugs, drug concentrations, and cell lines (data not shown). In general, the maximum MA achieved was less pronounced in Nos- and PJ-treated cells. Drug-induced onset of MA was corroborated by substantial increases in cyclin B1 levels in all cell lines. For most cases, prolonged MA (˜24 hr in duration) was followed by a substantial increase in the subG1 population fraction. […] Instances where the subGl fraction was elevated without cleaved caspase-3 may either represent caspase-independent cell death or the presence of hypodiploid cells whose fate is unclear. In general, no consistent associations between the extent, duration, or timing of MA within drugs or across cell lines was found.

PC3 cells = experiment: Peak subG1 fraction by flow cytometry after declustering drugs, PC3 cells; type: cell-based
Method: as §2

N1E-115 cells [2] = experiment: Golgi (GM130) and γ-tubulin co-immunostaining of drug-treated N1E-115 cells; type: cell-based, murine; conditions: data not shown
Text: The Golgi, which is primarily responsible for posttranslational modification and protein sorting, also functions as a microtubule-organizing center (MTOC). It has been hypothesized that supernumerary centrosomes may better organize the Golgi to enhance directional cell migration. To investigate what happens to the Golgi upon declustering drug-induced dispersal of the interphase centrosomal cluster, drug-treated N1E-115 cells were co-immunostained with GM130 (a cis-Golgi matrix protein crucial for maintaining its structure) and γ-tubulin.

[3] = system: adult human dermal fibroblasts (HDFs); experiment: Peak subG1 fraction after declustering drugs, non-malignant HDFs; type: cell-based; conditions: for Peak subG1 percents over 48 h: HDF; for death in cancer cell lines vs. HDFs: both concentrations
Method: as §2, §1
In HDFs, all the drugs tested increased peak subG1 over controls in a significant fashion (p<0.01 for all) (Table 2). […] Thus, it appears that there may be clinically relevant therapeutic windows for these drugs depending on the type of cancer and the drug dosage.

N1E-115 cells [4] = experiment: Interphase declustering index (DI) in N1E-115 cells; type: cell-based, murine; conditions: 6-h treatment, 25 interphase cells, drugs at their respective IC50 concentrations
Method: To evaluate their effect on interphase clustering, N1E-115 cells were treated with these drugs at their respective IC50 concentrations for 0, 3, 6 and 9 h and co-immunostained for γ-tubulin and α-tubulin to evaluate centrosomal spread and microtubule nucleation status, respectively.
Cell cycle phases were further evaluated via lamin A/C immunostaining to distinguish interphase declustering events from prophase centrosomal spread. To quantitate the spread of the interphase centrosomal cluster, a 3D reconstruction of z-stack images of 25 randomly-selected interphase cells from the 6-h treatment group of each drug were generated. By defining an ROI (region of interest) around the interphase centrosomal cluster, the volume of the cluster spread was calculated using Volocity software. Likewise, defining an ROI using the cell periphery provided the cell volume.

[5] = system: MDA-MB-231 (231), PC3, and HeLa cells; experiment: Mitotic arrest (MA) metrics by flow cytometry (anti-MPM2) across cell lines; type: cell-based
Text: FIG. 10 depicts mitotic arrest metrics across cell lines for each declustering drug. […] A lack of box in the plot occurs when the median is very close (or equal) to the inter-quartile range limits, in which case notch is shown with a default height and starting point of whisker line extension indicates 25% or 75% position. Because the coarse-grained data are integers and the size of the data sets are small (n<8), in some cases the median, lower or upper inter-quartile range values, or the max or min values, may coincide in some combination. This figure broadly visualizes clustering and correlation in the coarse-grained data. For instance, non-integer values have no intrinsic meaning but, for instance, a median value of 4.4 indicates a concentration of categories recorded in categories 4 or 5. […] TRH=“time reach highest” value; CTP=“consecutive time points,” MA_totCTP=sum(MA_SnCTP for n=2 . . . 5).
To evaluate the impact of putative declustering drugs on cell cycle progression and hypodiploidy (<2N DNA content, which may indicate apoptotic cells), MDA-MB-231 (231), PC3, and HeLa cells were treated with different concentrations of declustering drugs, stained with propidium iodide, labeled with anti-MPM2 antibody, and then assessed by flow cytometry at multiple time points over 48 hr. […]

N1E-115 cells [6] = experiment: Ki67 and cleaved caspase-3 immunostaining of serum-starved N1E-115 cells; type: cell-based, murine; conditions: RedBr-Nos 5 μM, Griseofulvin 10 μM, PJ-34 10 μM
[7] = system: mammary fibrocystic (MCF10A) cells; experiment: Peak subG1 fraction after declustering drugs, non-malignant MCF10A cells; type: cell-based; conditions: for peak subG1 percent compared to controls: MCF10A cells; for Peak subG1 percents over 48 h: MCF10A
Method: as §2, §1
Importantly, a therapeutic window exists for several of these agents at the concentrations and in the cell lines tested compared to cancer cells.

HeLa cells = experiment: Peak subG1 fraction by flow cytometry after declustering drugs, HeLa cells; type: cell-based
Method: as §2

Compound	vinculin localization and focal adhesion points (N1E-115 cells [1])	Peak subG1 percents over 48 h (MDA-MB-231 (231) cells; 10 μM)	Peak subG1 percents over 48 h (MDA-MB-231 (231) cells; 25 μM)	maximum (peak) subG1 fraction relative to control (MDA-MB-231 (231) cells; 25 μM)	Peak subG1 percents over 48 h (PC3 cells; 10 μM)	Peak subG1 percents over 48 h (PC3 cells; 25 μM)	fragmentation of the interphase Golgi complex (N1E-115 cells [2])	Peak subG1 percents over 48 h ([3]; 10 μM)	Peak subG1 percents over 48 h ([3]; 25 μM)	death in cancer cell lines vs. HDFs [3]	interphase declustering index (DI): ratio of average cluster volume to average cell volume (N1E-115 cells [4])	Ki67-positive cells (N1E-115 cells [6])	peak subG1 percent compared to controls [7]	Peak subG1 percents over 48 h ([7]; 10 μM)	Peak subG1 percents over 48 h ([7]; 25 μM)	Peak subG1 percents over 48 h (HeLa cells; 10 μM)	maximum (peak) subG1 fraction relative to control (HeLa cells; 10 μM)	Peak subG1 percents over 48 h (HeLa cells; 25 μM)	also measured
CN(C)CC(=O)Nc1ccc2[nH]c(=O)c3ccccc3c2c1 [PJ, PJ-34]	less severe	37.0%	65.0%	10.4 × control	62.4%	48.4%	interphase Golgi complex fragmented	13.6%	28.2%	more death in all cancer cell lines vs. HDFs	0.14	high proportion of Ki67-positive cells	did not cause a significant increase	6.9%	9.1%	48.5%	4.8 × control	64.4%	peak extent of CA (MCF10A cells; interphase MCF10A cells, 10 μM): 8 % of cells; peak extent of CA versus controls (MCF10A cells; interphase and mitotic MCF10A cells, 25 μM): increased the peak extent of CA in interphase and mitotic cells; mean time to peak MA (MA:TRH) ([5]; coarse-grained categories): ~12 h
reduced-9-bromonoscapine [RBN]	complete internalization of vinculin and complete loss of focal adhesion points	47.0%	80.8%	25 × control	80.7%	73.0%	most robust effect	35.9%	39.9%	more death in 231 cells	0.36	high proportion of Ki67-positive cells	did increase peak SubG1	36.4%	44.0%	54.1%	9 × control	75.6%	CA / peak extent of CA versus control levels (MCF10A cells; interphase and mitotic MCF10A cells, both concentrations (10 and 25 μM), over 24 h): significantly increased the peak extent of CA; maximum (peak) subG1 fraction relative to control (PC3 cells; 10 μM): 8 × control; peak MA (MA:HR), cells in MA ([5]; category near "4"): ≥ 30%; peak subG1 / toxicity in MCF10A cells versus cancer cell lines ([7]; 10 μM): smaller peak subG1 in MCF10A cells as compared to 231 cells; susceptibility / toxicity in MCF10A cells versus cancer cell lines ([7]; 25 μM): much greater increases in toxicity to 231 and PC3 cells
